Test results as given in paper PMC3139667, “A Screen against Leishmania Intracellular Amastigotes: Comparison to a Promastigote Screen and Identification of a Host Cell-Specific Hit” (PLoS Neglected Tropical Diseases, 2011).
Counter-ions that a name gives are not always drawn. Like-named read-outs stand apart in the source and are kept apart here.

Key:
[1] = system: L. donovani promastigotes; assay: Promastigote high-throughput ATP-bioluminescence assay; type: cell-based, Leishmania donovani; details: 72 h at 27°C, CellTiter-Glo, read-out: GI50 Promastigote
Protocol: L. donovani promastigotes from an exponentially growing culture were diluted to 10^6/ml in RPMI containing 10% FBS and 10% BHT. The diluted culture (99 µl/well) was dispensed in sterile 96-well flat white opaque assay plates (Greiner Bio-One) using a WellMate multichannel dispenser (Matrix). 1 µl of 1 mM test compound dissolved in DMSO was added to the plates for a final concentration of 10 µM compound and 1% DMSO. Amphotericin B was added as a positive control (final concentration 2 µM, 1% DMSO) and as a negative control, 1 µl DMSO was added (1% final concentration). Compounds and controls were added to the assay plate with the robotic dispenser Biomek FXp liquid handler (Beckman Coulter). Promastigotes were incubated with the compounds for 72 h at 27°C. The parasites were then lysed by adding 50 µl of CellTiter-Glo (Promega) and placed on an orbital shaker for 5 min at room temperature. After lysis, the resulting ATP-bioluminescence was measured using the Analyst HT plate reader (Molecular Devices). Percentage inhibition of parasite growth was calculated for each well as [1-(RLUx-RLU^+)/(RLU^--RLU^+)]*100 where RLUx, RLU^+ and RLU^- are respectively the Relative Light Units for each well, positive (amphotericin B) and negative (DMSO) controls. A screening window coefficient, denoted Z' factor, was used to evaluate the performance of the assay. The Z' factor, calculated as 1-(3σc++3σc−)/(µc+−µc−) where σc+, σc−, µc+ and µc− are respectively the standard deviation and mean values of positive and negative controls, is reflective of the assay signal dynamic range and the data variation associated with signal measurement. […] GI50 curve fitting was carried out using GraphPad Prism 4 Software (GraphPad Software Inc., San Diego, CA).

[2] = system: L. donovani axenic amastigotes; assay: Dose response study against axenic amastigotes (CellTiter-Glo); type: cell-based, Leishmania donovani; details: 72 h at 37°C, CellTiter-Glo, read-out: GI50 Axenic amastigote
Protocol: L. donovani axenic amastigotes (5×10^5 cells/ml in axenic amastigote media) were dispensed in sterile 96-well flat white opaque assay plates (Greiner Bio-One) using a WellMate multichannel dispenser (Matrix). […] 1% DMSO and amphotericin B (2 µM, 1% DMSO final concentration) were added as negative and positive controls respectively. Axenic amastigotes were incubated with the compounds for 72 h at 37°C with 5% CO2. Parasite viability was then measured using CellTiter-Glo as described above.

[3] = system: THP-1; assay: Host cell toxicity: THP-1 host nuclei counts in the image-based assay; details: for GI50: read-out: GI50 THP-1; for Selectivity: ratio between parasite GI50 and THP-1 GI50
Protocol: (§1) Sterile, black, 96-well, clear bottom plates (Greiner Bio-One) were seeded with exponentially growing THP-1 (5×10^5cells/ml). THP-1 were treated with 0.1 µM phorbol myristate acetate (PMA, Sigma) at 37°C for 48 h to achieve differentiation into adherent, non-dividing macrophages. Maturation of THP-1 cells towards monocyte-macrophage like cells is essential to avoid parasitized cells being overgrown by replicating cells. After activation by PMA, cells were washed and incubated with complete RPMI medium containing stationary phase L. donovani promastigotes at a macrophage/promastigote ratio of 1/15. After 4 h incubation at 37°C, non-internalized promastigotes were removed by 2–3 successive washes with RPMI containing 5% FBS and 5% horse serum. Test compounds (10 µM), positive control (2 µM amphotericin B) or negative control (1% DMSO) were then added to the cultures using a Biomek FXp liquid handler (Beckman Coulter). Cultures were incubated at 37°C for 72 h. Cells were then washed with phosphate-buffered saline (PBS), fixed for 30 minutes with 4% formaldehyde, rinsed again with PBS, stained for 2 h with 4′,6′-diamidino-2-phenylindole (DAPI 300 nM) and finally washed with PBS. […] Images were acquired with an INCell Analyzer 1000 automated epi-fluorescent microscope (G.E. Healthcare). The excitation and emission filters used to detect DAPI were 350/50 nm and 460/40 nm respectively. Eight image fields were acquired per well with a 20X objective. The proprietary INCell Developer Toolbox 1.7 software was used for image analysis. Segmentation parameters were set to identify host nuclei with a minimum area of 250 µm^2 and parasite kinetoplast with an average area of 1 µm^2. The intensity of parasite nucleus was too low to be detected with a 20X objective. A border, representing the boundary of the cell, was drawn around the nucleus (total area between 700 and 2000 µm^2). Only parasites found within this area were included in the calculation to eliminate extracellular parasites. False positive parasite detection in the nucleus was also excluded from the calculation. Host cell nuclei and parasite kinetoplasts were counted and the ratio of parasites DNA to host nuclei was selected as the measurement output. Percentage inhibition of parasite growth was calculated as [1-(P/hcx-P/hc^+)/(P/hc^−-P/hc^+)]*100 where P/hcx, P/hc^+ and P/hc^− are parasite per host cell ratio for every well, positive control (amphotericin B) and negative control (DMSO) respectively. Calculation of Z' factor and GI50 curve fitting were carried out as described above.

[4] = system: L. donovani intracellular amastigotes; assay: Intracellular amastigote high-throughput image-based assay in infected THP-1 macrophages; type: cell-based, Leishmania donovani; details: for GI50: L. donovani in THP-1, 72 h, parasites per host cell, read-out: GI50 Intracellular amastigote
Protocol: as §1

[5] = ratio between promastigote GI50 and intracellular amastigote GI50, >2 more active against intracellular amastigote, <0.4 more active against promastigotes
[6] = PMA-differentiated infected THP-1, 72 h, host nuclei count
[7] = Leishmania donovani, THP-1, 72 h

Molecule | GI50 ([1]; Leishmania donovani) | GI50 ([2]; Leishmania donovani) | GI50 ([3]; Homo sapiens, THP-1, 72 h) | Selectivity [3] | GI50 [1] | Specificity [4, 5] | GI50 [2] | further results
O=C(Nc1ccc(Cl)c(Cl)c1)c1cc(Cl)cc(Cl)c1O [3,3′,4′,5-tetrachlorosalicylanilide] | 1.45 µM | 1.38 µM | 0.32 µM | 0.22 | – | – | – | –
CCC(c1ccc(OCCN(CC)CC)cc1)C(CC)c1ccc(OCCN(CC)CC)cc1 (centres unmarked) [4,4′-Diethylaminoethoxyhexestrol] | – | – | – | 4.36 | 5 µM | 3.57 | 10.9 µM | GI50 [4]: 1.4 µM; GI50 [3, 6]: 6.11 µM
CC[C@@]1(O)C[C@H](O[C@H]2C[C@H](N(C)C)[C@H](O[C@H]3C[C@H](O)[C@H](O[C@H]4CCC(=O)[C@H](C)O4)[C@H](C)O3)[C@H](C)O2)c2c(cc3c(c2O)C(=O)c2c(O)cccc2C3=O)[C@H]1C(=O)OC [Aclacynomycine a1] | – | – | – | 5 | 9.15 µM | 1.57 | > 16.5 µM | GI50 [4]: 5.81 µM; GI50 [3, 6]: 29.1 µM
Nc1c2ccccc2nc2ccccc12 [Aminacrine] | 8.96 µM | > 16.5 µM | 13 µM | 6.82 | – | 4.71 | – | GI50 [4, 7]: 1.9 µM
CCOC(=O)C1=C(COCCN)NC(C)=C(C(=O)OC)C1c1ccccc1Cl (centres unmarked) [Amlodipine] | 3.11 µM | 27 µM | > 16.5 µM | – | – | 0.31 | – | GI50 [4, 7]: 9.78 µM
C[C@@H]1[C@H](O)[C@@H](C)/C=C/C=C/C=C/C=C/C=C/C=C/C=C/[C@H](O[C@@H]2O[C@H](C)[C@@H](O)[C@H](N)[C@@H]2O)C[C@@H]2O[C@](O)(C[C@@H](O)C[C@@H](O)[C@H](O)CC[C@@H](O)C[C@@H](O)CC(=O)O[C@H]1C)C[C@H](O)[C@H]2C(=O)O [Amphotericin B] | 1.61 µM | 5.42 µM | > 50 µM | 44.52 | – | 1.43 | – | Effect on growth of intracellular L. donovani ([4]; 2 µM, 72 h): significantly inhibited growth; Primary screen against intracellular amastigotes, hit selection ([4]; 10 µM, duplicates, hit = 60% parasite growth inhibition and not more than 20% reduction in THP-1 numbers): active; GI50 [4]: 1.12 µM
CCCCCC[C@H]1C(=O)O[C@H](C)[C@H](NC(=O)c2cccc(NC=O)c2O)C(=O)O[C@@H](C)[C@@H]1OC(=O)CC(C)C [Antimycin A] | 0.1 µM | 0.01 µM | > 50 µM | 500 | – | 0.05 | – | GI50 [4, 7]: 2.15 µM
CC(=O)OC[C@H]1O[C@@H]([S-])[C@H](OC(C)=O)[C@@H](OC(C)=O)[C@@H]1OC(C)=O.CCP(CC)CC.[Au+] [Auranofin] | – | – | – | 1.88 | 11.1 µM | 0.51 | > 50 µM | GI50 [4]: 21.8 µM; GI50 [3, 6]: 20.9 µM
CC(C)(C)c1ccc(S(=O)(=O)/C=C/C#N)cc1 [BAY 11–7085] | – | – | – | 32.46 | 1.54 µM | – | 0.42 µM | Specificity [4]: 0.06; GI50 [3, 6]: > 50 µM
Cc1c(-c2ccc(O)cc2)n(Cc2ccc(OCCN3CCCCCC3)cc2)c2ccc(O)cc12 [Bazedoxifene] | 6.52 µM | > 16.5 µM | – | – | – | – | – | –
CC(C)(C)CC(C)(C)c1ccc(OCCOCC[N+](C)(C)Cc2ccccc2)cc1.[Cl-] [Benzetonium chloride] | – | – | – | – | 11.3 µM | 1.13 | 10.7 µM | GI50 [4]: 10 µM
CCN(CC)c1ccc(C(=C2C=CC(=[N+](CC)CC)C=C2)c2ccccc2)cc1 [Brilliant green] | 0.1 µM | 0.03 µM | 1.64 µM | 15.88 | – | 0.02 | – | GI50 [4, 7]: 6 µM
COc1ccccc1OCCNCC(O)COc1cccc2[nH]c3ccccc3c12 (centres unmarked) [Carvedilol] | 12.4 µM | > 16.5 µM | 37.5 µM | 6.07 | – | 2.01 | – | GI50 [4, 7]: 6.16 µM
COCc1c(C(C)C)nc(C(C)C)c(/C=C/[C@@H](O)C[C@@H](O)CC(=O)O)c1-c1ccc(F)cc1 [Cerivastatin] | 10.8 µM | 0.02 µM | 7.15 µM | 0.66 | – | 0.22 | – | GI50 [4, 7]: > 50 µM
CCCCCCCCCCCCCCCC[n+]1ccccc1 [Cetylpyridinium chloride] | – | – | – | – | – | – | – | Specificity [4]: 8.05
C[C@@H]1CC[C@@]2(OC1)O[C@H]1[C@@H](O)[C@H]3[C@@H]4CC[C@H]5C[C@@H](O[C@@H]6O[C@H](CO)[C@H](O[C@@H]7O[C@H](CO)[C@@H](O)[C@H](O[C@@H]8OC[C@@H](O)[C@H](O)[C@H]8O)[C@H]7O[C@@H]7O[C@H](CO)[C@H](O)[C@H](O[C@@H]8O[C@H](CO)[C@@H](O)[C@H](O)[C@H]8O)[C@H]7O)[C@H](O)[C@H]6O)[C@H](O)C[C@]5(C)[C@H]4CC[C@]3(C)[C@H]1[C@@H]2C [Digitonin] | 4.38 µM | 13.8 µM | 13.5 µM | 3.075 | – | – | – | –
CC(=O)[C@]1(O)Cc2c(O)c3c(c(O)c2[C@@H](O[C@H]2C[C@H](N)[C@H](O)[C@H](C)O2)C1)C(=O)c1ccccc1C3=O [Idarubicin] | 4.65 µM | 1.78 µM | 1.89 µM | 0.40 | – | – | – | –
CN(C)C(=O)C(CCN1CCC(O)(c2ccc(Cl)cc2)CC1)(c1ccccc1)c1ccccc1 [Loperamide Hydrochloride] | 17.3 µM | > 50 µM | – | – | – | – | – | –
Clc1ccc(CO/N=C(\Cn2ccnc2)c2ccc(Cl)cc2Cl)c(Cl)c1 [Oxiconazole] | – | – | – | – | – | 0.40 | – | –
COc1c(Cl)cc2c(c1OC)N(C)[C@@H]1N3C(=O)[C@@]4(C)SS[C@@]3(C(=O)N4C)[C@H](O)[C@]21O [Sporidesmin A] | – | – | – | 0.02 | 1.18 µM | – | 1.66 µM | GI50 [3, 6]: 0.02 µM
CC(C)(C)c1ccc(C(O)CCCN2CCC(C(O)(c3ccccc3)c3ccccc3)CC2)cc1 (centres unmarked) [Terfenadine] | 11.9 µM | 0.61 µM | – | – | – | – | – | –
C[CH2][Hg][S]c1ccccc1C(=O)[O-].[Na+] [Thimerosal] | – | – | – | 26.18 | 0.49 µM | – | 1.5 µM | GI50 [3, 6]: 12.8 µM
CCCCN(CCCC)C(=S)[S-].CCCCN(CCCC)C(=S)[S-].[Zn+2] [Zinc Dibutyldithiocarbamate] | – | – | – | 5.89 | – | – | – | Specificity [4]: 0.17
Gramicidin | – | – | – | 12.19 | 0.68 µM | – | 5.76 µM | GI50 [3, 6]: 8.38 µM
